In patent EP4806911A1, “TRIPLE AGONIST COMPOUND” (Chengdu Aoda Biotechnology Co., Ltd, priority 2023, dated 2025):

Test: Preliminary pharmacokinetic characteristic evaluation
Type: in vivo, cynomolgus monkeys
Settings: for half-life: cynomolgus monkey, sc, male cynomolgus monkeys, administered subcutaneously at 0.2 mg/kg, plasma, LC-MS; for half-lives: cynomolgus monkeys, administered subcutaneously
Experimental: Among the above compounds, the principle of modification for long-acting was essentially the same.
The test animals were male cynomolgus monkeys. Two animals were used for each compound. The compounds were administered subcutaneously at a dose of 0.2 mg/kg. Blood samples were collected via intravenous sampling prior to administration (0 h) and at 1 h, 2 h, 3 h, 4 h, 8 h, 12 h, 18 h, 24 h, 48 h, 96 h, 144 h, and 168 h after administration. Plasma samples were obtained by centrifugation. The plasma concentrations of the compounds were respectively determined by liquid chromatography - mass spectrometry (LC-MS).

SMILES | half-life | half-lives
CC[C@H](C)[C@H](NC(=O)[C@H](Cc1ccccc1)NC(=O)[C@H](C)NC(=O)C(C)(C)NC(=O)[C@H](CCC(N)=O)NC(=O)[C@H](C)NC(=O)[C@H](CCCCNC(=O)COCCOCCNC(=O)CCC[C@H](NC(=O)CCCCCCCCCCCCCCCCCCC(=O)O)C(=O)O)NC(=O)[C@H](CCCCN)NC(=O)[C@H](CC(=O)O)NC(=O)[C@H](CC(C)C)NC(=O)C(C)(CC(C)C)NC(=O)[C@@H](NC(=O)[C@H](CO)NC(=O)[C@H](Cc1ccc(O)cc1)NC(=O)[C@H](CC(=O)O)NC(=O)[C@H](CO)NC(=O)[C@@H](NC(=O)C(C)(Cc1ccccc1)NC(=O)[C@@H](NC(=O)CNC(=O)[C@H](CCC(N)=O)NC(=O)C(C)(C)NC(=O)[C@@H](N)Cc1ccc(O)cc1)[C@@H](C)O)[C@@H](C)O)[C@@H](C)CC)C(=O)N[C@@H](CCC(=O)O)C(=O)N[C@@H](Cc1ccc(O)cc1)C(=O)N[C@@H](CC(C)C)C(=O)N[C@@H](CC(C)C)C(=O)N[C@@H](CCC(=O)O)C(=O)NCC(=O)NCC(=O)N1CCC[C@H]1C(=O)N[C@@H](CO)C(=O)N[C@@H](CO)C(=O)NCC(=O)N[C@@H](C)C(=O)N1CCC[C@H]1C(=O)N1CCC[C@H]1C(=O)N1CCC[C@H]1C(=O)N[C@@H](CO)C(N)=O (stereo partly shown) [Compound 2] | 83.5 h | greater than 80 hours
CC[C@H](C)[C@H](NC(=O)[C@H](Cc1ccccc1)NC(=O)[C@H](C)NC(=O)C(C)(C)NC(=O)[C@H](CCC(N)=O)NC(=O)[C@H](C)NC(=O)[C@H](CCCCNC(=O)COCCOCCNC(=O)CCC[C@H](NC(=O)CCCCCCCCCCCCCCCCCCC(=O)O)C(=O)O)NC(=O)[C@H](CCCCN)NC(=O)[C@H](CC(=O)O)NC(=O)[C@H](CC(C)C)NC(=O)C(C)(CC(C)C)NC(=O)[C@@H](NC(=O)[C@H](CO)NC(=O)[C@H](Cc1ccc(O)cc1)NC(=O)[C@H](CC(=O)O)NC(=O)[C@H](CO)NC(=O)[C@@H](NC(=O)C(C)(Cc1ccccc1F)NC(=O)[C@@H](NC(=O)CNC(=O)[C@H](CCC(N)=O)NC(=O)C(C)(C)NC(=O)[C@@H](N)Cc1ccc(O)cc1)[C@@H](C)O)[C@@H](C)O)[C@@H](C)CC)C(=O)N[C@@H](CCC(=O)O)C(=O)N[C@@H](Cc1ccc(O)cc1)C(=O)N[C@@H](CC(C)C)C(=O)N[C@@H](CC(C)C)C(=O)N[C@@H](CCC(=O)O)C(=O)NCC(=O)NCC(=O)N1CCC[C@H]1C(=O)N[C@@H](CO)C(=O)N[C@@H](CO)C(=O)NCC(=O)N[C@@H](C)C(=O)N1CCC[C@H]1C(=O)N1CCC[C@H]1C(=O)N1CCC[C@H]1C(=O)N[C@@H](CO)C(N)=O (stereo partly shown) [Compound 6] | 94.7 h | greater than 80 hours
